Test results: PMC8781192, “An In Silico and an In Vitro Inhibition Analysis of Glycogen Phosphorylase by Flavonoids, Styrylchromones, and Pyrazoles” (Nutrients, 2022)
Read-outs that look alike come from different tables or passages of the source.

Key:
[1] = target: T1, rabbit mGPa (Oryctolagus cuniculus, UniProt P00489); assay: In vitro effect of glucose on inhibitor potency (GPa inhibition with 0, 5, 10 mM glucose); assay type: biochemical; settings: for IC50: mean ± SEM; for inhibition at 40 µM: at 40 μM (highest concentration tested), read-out: GPa inhibitory activity (%)
T1 construct: purchased Creative Enzymes
T1 sequence (P00489 2-843 limits assumed): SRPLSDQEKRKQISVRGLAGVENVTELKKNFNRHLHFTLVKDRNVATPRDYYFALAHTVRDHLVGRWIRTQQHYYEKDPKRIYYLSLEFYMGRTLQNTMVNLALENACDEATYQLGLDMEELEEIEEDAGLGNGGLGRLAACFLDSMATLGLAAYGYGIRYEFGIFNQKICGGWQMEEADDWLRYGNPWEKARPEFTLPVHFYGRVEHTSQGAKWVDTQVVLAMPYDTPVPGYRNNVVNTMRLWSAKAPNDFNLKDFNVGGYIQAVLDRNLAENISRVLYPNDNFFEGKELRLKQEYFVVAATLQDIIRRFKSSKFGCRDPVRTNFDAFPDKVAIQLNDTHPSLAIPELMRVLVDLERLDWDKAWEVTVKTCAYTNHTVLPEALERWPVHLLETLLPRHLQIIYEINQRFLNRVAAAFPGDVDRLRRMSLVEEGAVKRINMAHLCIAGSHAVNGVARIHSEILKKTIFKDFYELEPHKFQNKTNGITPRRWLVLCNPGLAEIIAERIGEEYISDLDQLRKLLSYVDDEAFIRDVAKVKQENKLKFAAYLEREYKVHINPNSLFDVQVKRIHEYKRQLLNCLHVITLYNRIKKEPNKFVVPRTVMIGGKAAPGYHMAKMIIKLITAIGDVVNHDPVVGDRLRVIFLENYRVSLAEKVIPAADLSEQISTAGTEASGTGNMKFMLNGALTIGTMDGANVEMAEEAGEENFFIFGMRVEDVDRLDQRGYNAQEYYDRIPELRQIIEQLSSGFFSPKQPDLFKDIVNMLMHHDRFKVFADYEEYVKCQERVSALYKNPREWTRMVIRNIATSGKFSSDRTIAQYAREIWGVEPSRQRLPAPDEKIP
Experimental: The method was performed as described in Section 2.2, with slight modifications. […] The enzymatic reaction was then started with the addition of a 50 mM HEPES buffer solution with a pH of 7.2 containing 100 mM KCl, 2.5 mM MgCl2, 0.25 mM glucose 1-phosphate, and 0.25 mg/mL glycogen. This buffer was used without glucose, or it was enriched with 5 and 10 mM of glucose and was incubated for 30 min at 37 °C in the reaction mixture. After this incubation time, BIOMOL® Green was added, and the reaction was monitored in a microplate reader (Synergy HT, BioTek Instruments, Winooski, VT, USA) at 620 nm.

[2] = target: T1, rabbit mGPa; assay: In vitro glycogen phosphorylase inhibition assay (direction of glycogen synthesis, colorimetric phosphate); assay type: biochemical; settings: for inhibition at 50 µM: at 50 μM (highest concentration tested)
Experimental: The GP activity was measured using a previously optimized and validated method. In each assay, GP activity was measured by the direction of glycogen synthesis, which involved monitoring the colorimetric determination of inorganic phosphate deriving from glucose 1-phosphate. […] The enzymatic reaction was then started with the addition of a 50 mM HEPES buffer solution, with a pH of 7.2, containing 100 mM KCl, 2.5 mM MgCl2, 0.25 mM glucose 1-phosphate, and 0.25 mg/mL glycogen incubated for 30 min at 37 °C. After this incubation time, the reagent for colorimetric phosphate quantitation, BIOMOL® Green, was added to the reaction mixture. The reaction was monitored in a microplate reader (Synergy HT, BioTek Instruments, Winooski, VT, USA) at 620 nm.

[3] = target: T1, rabbit mGPa; design: method as in PMID 16317787; settings: direction of glycogen breakdown; cited from earlier work
[4] = test system: GPb; design: method as in PMID 16317787; settings: direction of glycogen breakdown; cited from earlier work
[5] = 0 mM of glucose, read-out: GPa IC50 value
[6] = 5 mM of glucose, read-out: GPa IC50 value
[7] = 10 mM of glucose, read-out: GPa IC50 value
[8] = no glucose, mean ± SEM, read-out: GPa IC50 value
[9] = mean ± SEM, read-out: GPa inhibitory activity (%)
[10] = Table S2 summary of activities, read-out: IC50

Compound	inhibition at 50 µM [2, 9]	also measured
O=c1cc(/C=C/C=C/c2ccc(O)c(O)c2)oc2cc(O)ccc12 [Compound 32]		IC50 [1, 5]: 16.7 ± 1.5 µM; IC50 [1, 6]: 13.4 ± 1.6 µM; IC50 [1, 7]: 10.8 ± 1.2 µM; IC50 [2, 8]: 16.7 ± 1.5 µM
O=C(O)[C@H]1O[C@@H](Oc2cc3oc(-c4ccccc4)cc(=O)c3c(O)c2O)[C@H](O)[C@@H](O)[C@@H]1O [Compound 49, Baicalin]		IC50 [2, 8]: 20.5 ± 2.5 µM
COc1cc(O)c2c(=O)cc(/C=C/C=C/c3ccc(O)c(O)c3)oc2c1 [Compound 33]		IC50 [1, 5]: 15.9 ± 1.1 µM; inhibition at 40 µM ([1]; 5 mM of glucose): 53.9 ± 2.5%; inhibition at 40 µM ([1]; 10 mM of glucose): < 30%; IC50 [2, 8]: 15.9 ± 1.1 µM
O=[N+]([O-])c1cccc(/C=C\c2c[nH]nc2-c2ccccc2O)c1 [Compound 8]	< 30%	
COc1cc2oc(-c3ccccc3)cc(=O)c2c(O)c1O [Compound 51, Baicalein-7-methylether]		IC50 [2, 8]: 22.6 ± 0.4 µM
O=c1cc(-c2ccccc2)oc2cc(O)ccc12 [Compound 36]	< 30%	
O=c1c(O)c(-c2ccc(O)c(O)c2)oc2cc(O)c(O)c(O)c12 [Compound 50, Quercetagetin]	< 30%	IC50 [2, 10]: > 50 µM
COc1ccc(/C=C/c2cc(-c3ccccc3O)nn2S(=O)(=O)c2ccc(C)cc2)cc1 [Compound 13]	< 30%	
O=c1cc(-c2ccc(O)c(O)c2)oc2cccc(O)c12 [Compound 41]	< 30%	IC50 [2, 10]: > 50 µM
O=c1c(O)c(-c2ccc(O)c(O)c2)oc2cc(O)cc(O)c12 [Compound 45, Quercetin]	< 30%	IC50 [2, 10]: > 50 µM
O=c1cc(/C=C/c2ccc(O)c(O)c2)oc2cccc(O)c12 [Compound 20]	< 30%	
O=c1cc(/C=C/c2ccccc2)oc2cc(O)ccc12 [Compound 16]	< 30%	
O=c1cc(-c2ccccc2)oc2cc(O)c(O)c(O)c12 [Compound 47, Baicalein]		IC50 [3]: 11.2 ± 1.5 µM; IC50 [4]: 10.2 ± 1.2 µM; IC50 [2, 8]: 23.5 ± 2.9 µM
COc1ccc(-c2n[nH]cc2/C=C\c2ccc([N+](=O)[O-])cc2)c(O)c1 [Compound 9]	< 30%	
O=c1cc(-c2ccccc2)oc2c(O)c(O)cc(O)c12 [Compound 46, Norwogonin]		IC50 [1, 5]: 13.2 ± 1.4 µM; IC50 [1, 6]: 8.9 ± 1 µM; IC50 [1, 7]: 3.7 ± 0.5 µM; IC50 [2, 8]: 13.2 ± 1.4 µM
O=c1cc(/C=C/c2ccc(O)c(O)c2)oc2ccccc12 [Compound 18]	< 30%	
CN(C)C(=O)[C@H](O)[C@H](Cc1ccccc1)NC(=O)c1cc2cc(Cl)ccc2[nH]1 [CP-91149, 5-chloro-N-[(1S,2R)-3-(dimethylamino)-2-hydroxy-3-oxo-1-(phenylmethyl)propyl]-1H-indole-2-carboxamide, reference compound]		IC50 ([1]; GPa IC50 value, 0 mM of glucose): 0.58 ± 0.09 µM; IC50 ([1]; GPa IC50 value, 5 mM of glucose): 0.39 ± 0.05 µM; IC50 ([1]; GPa IC50 value, 10 mM of glucose): 0.22 ± 0.04 µM; IC50 [2, 8]: 0.58 ± 0.09 µM
Oc1ccccc1-c1n[nH]cc1/C=C/c1ccccc1 [Compound 1]	< 30%	

Compound	inhibition at 50 µM [2, 9]	also measured
O=c1cc(/C=C/c2ccc(O)cc2)oc2cc(O)ccc12 [Compound 17]	< 30%	
O=c1cc(/C=C/c2ccc(O)c(O)c2)oc2cc(O)ccc12 [Compound 19]	< 30%	
Oc1ccccc1-c1cc(/C=C/c2ccc(Cl)cc2)[nH]n1 [Compound 11]	< 30%	
Oc1ccccc1-c1n[nH]cc1/C=C/c1ccccc1C(F)(F)F [Compound 4]	< 30%	
Oc1ccccc1-c1n[nH]cc1/C=C/c1ccc(Cl)cc1 [Compound 2]	< 30%	
CCCCCCCCCCCCn1cc(/C=C/c2ccc(Cl)cc2)c(-c2ccccc2O)n1 [Compound 7]	< 30%	
CCCCCCCCCCCCn1cc(/C=C/c2ccccc2)c(-c2ccccc2O)n1 [Compound 6]	< 30%	
O=c1cc(/C=C/c2ccccc2)oc2cc(O)cc(O)c12 [Compound 21]	< 50%	
CCCCCCCCCCn1cc(/C=C/c2ccccc2)c(-c2ccccc2O)n1 [Compound 5]	< 30%	
COc1ccc(/C=C/c2c[nH]nc2-c2ccccc2O)cc1 [Compound 3]	< 30%	
COc1ccc(/C=C/c2cc(-c3ccccc3O)nn2-c2ccccc2)cc1 [Compound 12]	< 30%	
COc1ccc(/C=C/c2cc(-c3ccccc3OS(=O)(=O)c3ccc(C)cc3)nn2S(=O)(=O)c2ccc(C)cc2)cc1 [Compound 15]	< 30%	
O=c1cc(/C=C/c2ccc(O)cc2)oc2cc(O)cc(O)c12 [Compound 22]	< 50%	
O=c1c(O)c(/C=C/c2ccc(O)c(O)c2)oc2c(O)c(O)ccc12 [Compound 24]		IC50 [2, 10]: > 25 µM; inhibition at 25 µM ([2]; at 25 μM (highest concentration tested), mean ± SEM, read-out: GPa inhibitory activity (%)): 33.7 ± 6.5%
O=c1cc(/C=C/c2ccc(O)c(O)c2)oc2cc(O)cc(O)c12 [Compound 23]		IC50 [2, 8]: 31.7 ± 2.4 µM
Cc1ccc(S(=O)(=O)Oc2ccccc2-c2cc(/C=C/c3ccccc3)n(S(=O)(=O)c3ccc(C)cc3)n2)cc1 [Compound 14]	< 30%	
Oc1ccccc1-c1cc(/C=C/c2ccccc2)[nH]n1 [Compound 10]	< 30%	

Now from value to molecule, other results behind:

inhibition at 50 µM [2, 9]	Compound	also measured
< 30%	O=c1cc(/C=C/C=C/c2ccc(O)c(O)c2)oc2ccccc12 [Compound 30]	
42.2 ± 5.6%	COc1cc(OC)c2c(=O)cc(/C=C/c3ccc(OC)c(OC)c3)oc2c1 [Compound 26]	
< 30%	O=c1cc(-c2ccc(O)c(O)c2)oc2cc(O)cc(O)c12 [Compound 43, Luteolin]	IC50 [2, 10]: > 50 µM
< 30%	O=c1c(O)c(-c2ccccc2)oc2cc(O)cc(O)c12 [Compound 44, Galangin]	
< 30%	O=c1cc(-c2ccc(O)c(O)c2)oc2ccccc12 [Compound 39]	IC50 [2, 10]: > 50 µM
35.8 ± 4.6%	COc1ccc2c(=O)cc(/C=C/C=C/c3ccc(OC)c(OC)c3)oc2c1 [Compound 35]	
< 30%	COc1ccc(/C=C/c2cc(=O)c3ccc(OC)c(OC)c3o2)cc1OC [Compound 27]	
51.9 ± 1.8%	COc1ccc2c(=O)cc(/C=C/C=C/c3ccc(O)c(O)c3)oc2c1 [Compound 34]	
< 30%	COc1ccc(/C=C/c2cc(=O)c3c(OC)cccc3o2)cc1OC [Compound 29]	
< 30%	O=c1cc(-c2ccc(O)c(O)c2)oc2cc(O)ccc12 [Compound 40]	IC50 [2, 10]: > 50 µM
< 30%	COc1cc(OC)c2c(=O)cc(/C=C/c3ccc(O)c(O)c3)oc2c1 [Compound 25]	
< 30%	COc1ccc2c(=O)cc(/C=C/c3ccc(OC)c(OC)c3)oc2c1 [Compound 28]	
< 30%	O=c1cc(/C=C/C=C/c2ccc(O)c(O)c2)oc2cccc(O)c12 [Compound 31]	
< 30%	COc1cc2oc(-c3ccccc3)cc(=O)c2c(OC)c1OC [Compound 52, Baicalein-5,6,7-trimethylether]	
< 30%	O=c1cc(-c2ccc(O)cc2)oc2cc(O)ccc12 [Compound 37]	
< 30%	O=c1cc(-c2ccc(O)cc2)oc2cc(O)c(O)c(O)c12 [Compound 48, Scutellarein]	IC50 [2, 10]: > 50 µM
35.7 ± 2.1%	O=c1cc(-c2ccc(O)cc2)oc2cc(O)cc(O)c12 [Compound 42, Apigenin]	
